How the values were obtained:
Assay type in all cases: in vivo
[1] = system: waterhemp (Amaranthus tuberculatus); test: (12) Herbicidal effect test, pot, spray at 6.0 to 8.5 leaf stage; conditions: 13th day after spraying
Description: (§1) [formula] • X: growth inhibition rate when treated with α (g/ha) of compound A, • Y: growth inhibition rate when treated with β (g/ha) of compound B, • E: growth inhibition rate expected when treated with α (g/ha) of compound A and β (g/ha) of compound B (expected value).
Upland soil was put in a 1/1,000,000 hectare pot, and seeds of waterhemp (Amaranthus tuberculatus) were sown. When waterhemp reached 6.0 to 8.5 leaf stage, a water-based suspension containing tiafenacil as the active ingredient, prepared by a conventional method for preparing a water-based suspension, and an emulsifiable concentrate containing S-metolachlor as the active ingredient (tradename: Dual Gold, manufactured by Syngenta), a wettable powder containing metribuzin as the active ingredient (tradename: SENCOR wettable powder, manufactured by Bayer Crop Science) or water dispersible granules containing pyroxasulfone as the active ingredient (tradename: Sakura, manufactured by Bayer Crop Science) were diluted with water (in an amount corresponding to 200 liter per hectare) containing 0.5 vol % of an agricultural spreader (tradename: Destiny HC, manufactured by Winfield Solutions, LLC.) and sprayed by a small spray gun (model: W-101-132G, manufactured by ANEST IWATA Corporation). On the 13th day after spraying, the state of growth of the waterhemp was visually observed, and the growth inhibition rate (%) was obtained in accordance with the evaluation standards described in the above (1) herbicidal effect test, and the results are shown in Table 12. Further, the expected value of the growth inhibition rate (%) was calculated in accordance with the Colby's formula described in the above (1) herbicidal effect test, and the results are also shown in Table 12.

[2] = system: Italian ryegrass (Lolium multiflorum); test: (16) Herbicidal effect test (comparative test), pot, spray at 2.5 to 3.0 leaf stage; conditions: 4th day after spraying
Description: as §1
Upland soil was put in a 1/1,000,000 hectare pot, and seeds of Italian ryegrass (Lolium multiflorum) were sown. When Italian ryegrass reached 2.5 to 3.0 leaf stage, a water-based suspension containing tiafenacil as the active ingredient, prepared by a conventional method for preparing a water-based suspension, a water-based suspension containing saflufenacil as the active ingredient (tradename: Sharpen, manufactured by BASF), a wettable powder containing fomesafen as the active ingredient, prepared by a conventional method for preparing a wettable powder, an emulsifiable concentrate containing fluthiacet-methyl as the active ingredient (tradename: Attackshot emulsifiable concentrate, manufactured by MARUWA Biochemical Co., Ltd.), a dry flowable containing carfentrazone-ethyl as the active ingredient (tradename: Task DF, manufactured by ISHIHARA SANGYO KAISHA, LTD.) or a water-based suspension containing pyraflufen-ethyl as the active ingredient (tradename: ECOPART flowable, manufactured by NIHON NOHYAKU CO., LTD.), and an emulsifiable concentrate containing S-metolachlor as the active ingredient (tradename: Dual Gold, manufactured by Syngenta) or a wettable powder containing metribuzin as the active ingredient (tradename: SENCOR wettable powder, manufactured by Bayer Crop Science), were diluted with water (in an amount corresponding to 200 liter per hectare) containing 0.5 vol % of an agricultural spreader (tradename: Destiny HC, manufactured by Winfield Solutions, LLC.) and sprayed by a small spray gun (model: W-101-132G, manufactured by ANEST IWATA Corporation). On the 4th day after spraying, the state of growth of the Italian ryegrass was visually observed, and the growth inhibition rate (%) was obtained in accordance with the evaluation standards described in the above (1) herbicidal effect test, and the results are shown in Table 16. Further, the expected value of the growth inhibition rate (%) was calculated in accordance with the Colby's formula described in the above (1) herbicidal effect test, and the results are also shown in Table 16.

[3] = system: Italian ryegrass (Lolium multiflorum); test: (7) Herbicidal effect test, pot, spray at 2.8 to 3.0 leaf stage; conditions: 7th day after spraying
Description: as §1
Upland soil was put in a 1/1,000,000 hectare pot, and seeds of Italian ryegrass (Lolium multiflorum) were sown. When Italian ryegrass reached 2.8 to 3.0 leaf stage, a water-based suspension containing tiafenacil as the active ingredient, prepared by a conventional method for preparing a water-based suspension, and an emulsifiable concentrate containing pethoxamid as the active ingredient (tradename: Successor 600, manufactured by Stahler Suisse SA) or an emulsifiable concentrate containing dimethenamid-P as the active ingredient (tradename: Fieldstar P emulsifiable concentrate, manufactured by BASF) were diluted with water (in an amount corresponding to 200 liter per hectare) containing 0.5 vol % of an agricultural spreader (tradename: Destiny HC, manufactured by Winfield Solutions, LLC.) and sprayed by a small spray gun (model: W-101-132G, manufactured by ANEST IWATA Corporation). On the 7th day after spraying, the state of growth of the Italian ryegrass was visually observed, and the growth inhibition rate (%) was obtained in accordance with the evaluation standards described in the above (1) herbicidal effect test, and the results are shown in Table 7. Further, the expected value of the growth inhibition rate (%) was calculated in accordance with the Colby's formula described in the above (1) herbicidal effect test, and the results are also shown in Table 7.

[4] = system: waterhemp (Amaranthus tuberculatus); test: (13) Herbicidal effect test, pot, spray at 5.0 to 8.0 leaf stage; conditions: 4th day after spraying
Description: as §1
Upland soil was put in a 1/1,000,000 hectare pot, and seeds of waterhemp (Amaranthus tuberculatus) were sown. When the waterhemp reached 5.0 to 8.0 leaf stage, a water-based suspension containing tiafenacil as the active ingredient, prepared by a conventional method for preparing a water-based suspension, and a wettable powder containing tri-allate as the active ingredient, prepared by a conventional method for preparing a wettable powder, an emulsifiable concentrate containing pethoxamid as the active ingredient (tradename: Successor 600, manufactured by Stähler Suisse SA) or an emulsifiable concentrate containing dimethenamid-P as the active ingredient (tradename: Fieldstar P emulsifiable concentrate, manufactured by BASF) were diluted with water (in an amount corresponding to 200 liter per hectare) containing 0.5 vol % of an agricultural spreader (tradename: Destiny HC, manufactured by Winfield Solutions, LLC.) and sprayed by a small spray gun (model: W-101-132G, manufactured by ANEST IWATA Corporation). On the 4th day after spraying, the state of growth of the waterhemp was visually observed, and the growth inhibition rate (%) was obtained in accordance with the evaluation standards described in the above (1) herbicidal effect test, and the results are shown in Table 13. Further, the expected value of the growth inhibition rate (%) was calculated in accordance with the Colby's formula described in the above (1) herbicidal effect test, and the results are also shown in Table 13.

## CCc1cccc(C)c1N(C(=O)CCl)[C@@H](C)COC [S-metolachlor]
[1]; Dose 7.5 g/ha
  Growth inhibition rate (%) Measured value: 0%
[1]; Dose 375 g/ha
  Growth inhibition rate (%) Measured value: 0%
[1]; Dose 750 g/ha
  Growth inhibition rate (%) Measured value: 0%
[2]; Dose 750 g/ha
  Growth inhibition rate (%) Measured value: 3%

## COC[C@H](C)N(C(=O)CCl)c1c(C)csc1C [dimethenamid-P]
[3]; Dose 60 g/ha
  Growth inhibition rate (%) Measured value: 0%
[3]; Dose 120 g/ha
  Growth inhibition rate (%) Measured value: 3%
[3]; Dose 240 g/ha
  Growth inhibition rate (%) Measured value: 8%
[3]; Dose 750 g/ha
  Growth inhibition rate (%) Measured value: 12%
[3]; Dose 1500 g/ha
  Growth inhibition rate (%) Measured value: 15%
[4]; Dose 60 g/ha
  Growth inhibition rate (%) Measured value: 0%
[4]; Dose 375 g/ha
  Growth inhibition rate (%) Measured value: 0%
[4]; Dose 750 g/ha
  Growth inhibition rate (%) Measured value: 0%

## CSc1nnc(C(C)(C)C)c(=O)n1N [metribuzin]
[1]; Amaranthus tuberculatus, Dose 9.38 g/ha, read-out: Growth inhibition rate (%) Measured value
  inhibition at 9.38 g/ha: 5%
[1]; Amaranthus tuberculatus, Dose 550 g/ha, read-out: Growth inhibition rate (%) Measured value
  inhibition at 550 g/ha: 37%
[1]; Amaranthus tuberculatus, Dose 1100 g/ha, read-out: Growth inhibition rate (%) Measured value
  inhibition at 1100 g/ha: 50%
[2]; Lolium multiflorum, Dose 18.75 g/ha, read-out: Growth inhibition rate (%) Measured value
  inhibition at 18.75 g/ha: 7%

## CCOCCN(C(=O)CCl)C(=C(C)C)c1ccccc1 [pethoxamid]
[3]; Dose 93.75 g/ha
  Growth inhibition rate (%) Measured value: 0%
[3]; Dose 187.5 g/ha
  Growth inhibition rate (%) Measured value: 0%
[3]; Dose 375 g/ha
  Growth inhibition rate (%) Measured value: 7%
[3]; Dose 750 g/ha
  Growth inhibition rate (%) Measured value: 7%
[3]; Dose 1500 g/ha
  Growth inhibition rate (%) Measured value: 12%
[4]; Dose 93.8 g/ha
  Growth inhibition rate (%) Measured value: 0%
[4]; Dose 375 g/ha
  Growth inhibition rate (%) Measured value: 0%
[4]; Dose 750 g/ha
  Growth inhibition rate (%) Measured value: 0%

## Cn1nc(C(F)(F)F)c(CS(=O)(=O)C2=NOC(C)(C)C2)c1OC(F)F [pyroxasulfone]
[1]; Amaranthus tuberculatus, Dose 7.5 g/ha, read-out: Growth inhibition rate (%) Measured value
  inhibition at 7.5 g/ha: 10%
[1]; Amaranthus tuberculatus, Dose 250 g/ha, read-out: Growth inhibition rate (%) Measured value
  inhibition at 250 g/ha: 17%
[1]; Amaranthus tuberculatus, Dose 500 g/ha, read-out: Growth inhibition rate (%) Measured value
  inhibition at 500 g/ha: 13%

## COC(=O)CCNC(=O)C(C)Sc1cc(-n2c(=O)cc(C(F)(F)F)n(C)c2=O)c(F)cc1Cl (stereo not drawn) [tiafenacil]
[1]; Dose 6.25 g/ha
  Growth inhibition rate (%) Measured value: 33%
[3]; Dose 6.25 g/ha
  Growth inhibition rate (%) Measured value: 15%
[3]; Dose 12.5 g/ha
  Growth inhibition rate (%) Measured value: 37%
[3]; Dose 25 g/ha
  Growth inhibition rate (%) Measured value: 33%
[2]; Dose 12.5 g/ha
  Growth inhibition rate (%) Measured value: 38%
[4]; Dose 6.25 g/ha
  Growth inhibition rate (%) Measured value: 73%

## CC(C)N(C(=O)SCC(Cl)=C(Cl)Cl)C(C)C [tri-allate]
[4]; Amaranthus tuberculatus, Dose 75 g/ha, read-out: Growth inhibition rate (%) Measured value
  inhibition at 75 g/ha: 0%
[4]; Amaranthus tuberculatus, Dose 625 g/ha, read-out: Growth inhibition rate (%) Measured value
  inhibition at 625 g/ha: 0%
[4]; Amaranthus tuberculatus, Dose 1250 g/ha, read-out: Growth inhibition rate (%) Measured value
  inhibition at 1250 g/ha: 0%
